Measured values as given in ChEMBL document CHEMBL5226298, “Chemoenzymatic Synthesis of 5-Methylpsilocybin: A Tryptamine with Potential Psychedelic Activity” (2021).

What was measured:
Mus musculus [1] = experiment: Induction of psychedelics activity in mouse assessed as head-twitch response at upto 10 mg/kg, ip measured for 30 min; type: functional; details: 0.5 h
Mus musculus [2] = experiment: Induction of psychedelics activity in C57BL/6J mouse assessed as head-twitch response at upto 10 mg/kg, ip measured for 30 min; type: functional; details: 0.5 h

Cc1ccc2[nH]cc(CCN(C)C)c2c1OP(=O)(O)O
ED50 (Mus musculus [1]): 1.23 mg/kg

CN(C)CCc1c[nH]c2ccccc12 [N,N-DIMETHYLTRYPTAMINE]
ED50 (Mus musculus [2]): 5.05 µmol/kg
